# Results as given in patent US20040142971A1, “BENZOTHIOPHENE COMPOUNDS HAVING ANTIINFECTIVE ACTIVITY” (GeneSoft, Inc., priority 2001, published 2004).
# What was measured:
# Test in all cases: MIC, NCCLS broth microdilution
# [1] = system: S. epidermidis ATCC 700586 (methycillin resistant strain, MRSE); type: cell-based, Staphylococcus epidermidis; conditions: G = S. epidermidis ATCC 700586
# Excerpt: (§1) In vitro biological activity data were collected for a variety of microorganisms, including Bacillus cereus (ATCC 11778), Staphylococcus aureus (ATCC 27660 (a methicillin resistant strain (MRSA), ATCC 33591 and ATCC 43300); ATCC 13709, a methicillin sensitive strain (MSSA)); Streptococcus pneumoniae (ATCC 51422, a penicillin resistant strain (PRSP)), Enterococcus faecium (ATCC 51559, a vancomycin resistant strain (VRE)), and Staphylococcus epidermidis (ATCC 700586, a methycillin resistant strain (MRSE)). Additionally, antifungal activity data were collected for Candida albicans (ATCC 38247). Minimal inhibition concentrations (MIC's) were determined using the National Committee for Clinical Laboratory Standards (NCCLS) broth microdilution assay in microtiter plates, as set forth in: (1) the guidelines of the National Committee for Clinical Laboratory Standards (NCCLS) Document M7-A4 (NCCLS, 1997); (2) the guidelines of the National Committee for Clinical Laboratory Standards (NCCLS) Document M11-A4 (NCCLS, 1997); and (3) the guidelines and reference method of the National Committee for Clinical Laboratory Standards (NCCLS) Document M27-T (NCCLS, 1995). For antifungal essays, the method recommended in Murray, PR., 1995 Manual of Clinical Microbiology (ASM Press, Washington, D.C.), was employed.
# [2] = system: S. pneumoniae ATCC 51422 (penicillin resistant strain, PRSP); type: cell-based, Streptococcus pneumoniae; conditions: H = S. pneumoniae ATCC 51422
# Excerpt: as §1
# S. aureus ATCC 33591 = type: cell-based, Staphylococcus aureus; conditions: E = S. aureus ATCC 33591
# Excerpt: as §1
# [3] = system: S. aureus ATCC 27660 (methicillin resistant strain, MRSA); type: cell-based, Staphylococcus aureus; conditions: D = S. aureus ATCC 27660
# Excerpt: as §1
# [4] = system: S. aureus ATCC 13709 (methicillin sensitive strain, MSSA); type: cell-based, Staphylococcus aureus; conditions: C = S. aureus ATCC 13709
# Excerpt: as §1
# B. Cereus ATCC 11778 = type: cell-based, Bacillus cereus; conditions: A = B. Cereus ATCC 11778
# Excerpt: as §1
# [5] = system: E. faecium ATCC 51559 (vancomycin resistant strain, VRE); type: cell-based, Enterococcus faecium; conditions: B = E. faecium ATCC 51559
# Excerpt: as §1
Compound,Minimum Inhibitory Concentration (MIC) [1],Minimum Inhibitory Concentration (MIC) [2],Minimum Inhibitory Concentration (MIC) (S. aureus ATCC 33591),Minimum Inhibitory Concentration (MIC) [3],Minimum Inhibitory Concentration (MIC) [4],Minimum Inhibitory Concentration (MIC) (B. Cereus ATCC 11778),Minimum Inhibitory Concentration (MIC) [5]
CN1CCCC1CCNC(=O)c1cc(NC(=O)c2cc(NC(=O)c3cc(NC(=O)c4sc5cc6c(cc5c4Cl)OCO6)cn3C)cn2C)cn1C (stereo not drawn) [Ib-20m],+++ (+++ = MIC ≦ 4),+++ (+++ = MIC ≦ 4),+++ (+++ = MIC ≦ 4),+++ (+++ = MIC ≦ 4),+++ (+++ = MIC ≦ 4),+++ (+++ = MIC ≦ 4),+++ (+++ = MIC ≦ 4)
Cn1cc(NC(=O)c2cc(NC(=O)c3cc4ccccc4cn3)no2)cc1C(=O)OCCN1CCOCC1 [Ib-61],+++ (+++ = MIC ≦ 4),+++ (+++ = MIC ≦ 4),+++ (+++ = MIC ≦ 4),+++ (+++ = MIC ≦ 4),+++ (+++ = MIC ≦ 4),+++ (+++ = MIC ≦ 4),+++ (+++ = MIC ≦ 4)
Cn1cc(NC(=O)c2cc(NC(=O)c3sc4cc5c(cc4c3Cl)OCO5)cn2C)cc1C(=O)NCCN1CCOCC1 [Ib-20e],+++ (+++ = MIC ≦ 4),+++ (+++ = MIC ≦ 4),+++ (+++ = MIC ≦ 4),+++ (+++ = MIC ≦ 4),+++ (+++ = MIC ≦ 4),+++ (+++ = MIC ≦ 4),+++ (+++ = MIC ≦ 4)
Cn1cc(NC(=O)c2sc3cc4c(cc3c2Cl)OCO4)cc1C(=O)NCCN1CCCC1 [Ib-20o],+++ (+++ = MIC ≦ 4),+++ (+++ = MIC ≦ 4),+++ (+++ = MIC ≦ 4),+++ (+++ = MIC ≦ 4),+++ (+++ = MIC ≦ 4),+++ (+++ = MIC ≦ 4),+++ (+++ = MIC ≦ 4)
Cn1cc(NC(=O)c2cc3ccccc3cn2)cc1C(=O)Nc1cc(C(=O)Nc2cc(C(=O)NCCN3CCOCC3)n(CCN3CCOCC3)c2)n(C)c1 [Ib-56],+++ (+++ = MIC ≦ 4),+++ (+++ = MIC ≦ 4),+++ (+++ = MIC ≦ 4),+++ (+++ = MIC ≦ 4),+++ (+++ = MIC ≦ 4),>32 µg/mL,+++ (+++ = MIC ≦ 4)
Cn1cc(NC(=O)c2sc3cc4c(cc3c2Cl)OCO4)cc1C(=O)NCCN1CCSCC1 [Ib-20p],+++ (+++ = MIC ≦ 4),+++ (+++ = MIC ≦ 4),+++ (+++ = MIC ≦ 4),+++ (+++ = MIC ≦ 4),+++ (+++ = MIC ≦ 4),+++ (+++ = MIC ≦ 4),+++ (+++ = MIC ≦ 4)
Cn1cc(NC(=O)c2cc(NC(=O)c3cc(NC(=O)c4sc5cc6c(cc5c4Cl)OCO6)cn3C)cn2C)cc1C(=O)NCCN1CCCC1 [Ib-20g],+++ (+++ = MIC ≦ 4),+++ (+++ = MIC ≦ 4),+++ (+++ = MIC ≦ 4),+++ (+++ = MIC ≦ 4),+++ (+++ = MIC ≦ 4),+++ (+++ = MIC ≦ 4),

# Further lines, results first:
Minimum Inhibitory Concentration (MIC) [1],Minimum Inhibitory Concentration (MIC) [2],Minimum Inhibitory Concentration (MIC) (S. aureus ATCC 33591),Minimum Inhibitory Concentration (MIC) [3],Minimum Inhibitory Concentration (MIC) [4],Minimum Inhibitory Concentration (MIC) (B. Cereus ATCC 11778),Minimum Inhibitory Concentration (MIC) [5],Compound
+++ (+++ = MIC ≦ 4),"+ (+ = MIC from 12 to 32, inclusive)",+++ (+++ = MIC ≦ 4),+++ (+++ = MIC ≦ 4),+++ (+++ = MIC ≦ 4),+++ (+++ = MIC ≦ 4),+++ (+++ = MIC ≦ 4),COCn1cc(NC(=O)c2cc3ccccc3cn2)cc1C(=O)Nc1cc(C(=O)Nc2cc(C(=O)NCCN3CCOCC3)n(C)c2)n(C)c1 [Ib-72]
+++ (+++ = MIC ≦ 4),+++ (+++ = MIC ≦ 4),+++ (+++ = MIC ≦ 4),+++ (+++ = MIC ≦ 4),+++ (+++ = MIC ≦ 4),+++ (+++ = MIC ≦ 4),+++ (+++ = MIC ≦ 4),Cc1cc(NC(=O)c2cc(NC(=O)c3cc(NC(=O)c4cc5ccccc5cn4)cn3C)cn2CCN2CCOCC2)sn1 [Ib-63]
+++ (+++ = MIC ≦ 4),+++ (+++ = MIC ≦ 4),+++ (+++ = MIC ≦ 4),+++ (+++ = MIC ≦ 4),+++ (+++ = MIC ≦ 4),+++ (+++ = MIC ≦ 4),+++ (+++ = MIC ≦ 4),Cn1cc(NC(=O)c2cc3ccccc3cn2)cc1C(=O)Nc1cc(C(=O)Nc2cc(C(=O)NCCN3CCCCC3)n(CCN3CCCCC3)c2)n(C)c1 [Ib-68]
+++ (+++ = MIC ≦ 4),+++ (+++ = MIC ≦ 4),+++ (+++ = MIC ≦ 4),+++ (+++ = MIC ≦ 4),+++ (+++ = MIC ≦ 4),+++ (+++ = MIC ≦ 4),+++ (+++ = MIC ≦ 4),Cc1cc(NC(=O)c2cc(NC(=O)c3cc(NC(=O)c4cc5ccccc5cn4)cn3C)cn2CCN2CCCC2)sn1 [Ib-65]
+++ (+++ = MIC ≦ 4),+++ (+++ = MIC ≦ 4),+++ (+++ = MIC ≦ 4),+++ (+++ = MIC ≦ 4),+++ (+++ = MIC ≦ 4),+++ (+++ = MIC ≦ 4),+++ (+++ = MIC ≦ 4),Cc1cc(NC(=O)c2cc(NC(=O)c3nc(NC(=O)c4cc5ccccc5cn4)cn3C)cn2CCN2CCOCC2)sn1 [Ib-77]
+++ (+++ = MIC ≦ 4),+++ (+++ = MIC ≦ 4),+++ (+++ = MIC ≦ 4),+++ (+++ = MIC ≦ 4),+++ (+++ = MIC ≦ 4),+++ (+++ = MIC ≦ 4),+++ (+++ = MIC ≦ 4),Cn1cc(NC(=O)c2cc(NC(=O)c3cc(NC(=O)c4cc5ccccc5cn4)cn3C)c[nH]2)cc1C(=O)NCCN1CCOCC1 [Ib-67]
+++ (+++ = MIC ≦ 4),+++ (+++ = MIC ≦ 4),+++ (+++ = MIC ≦ 4),+++ (+++ = MIC ≦ 4),+++ (+++ = MIC ≦ 4),"+ (+ = MIC from 12 to 32, inclusive)",+++ (+++ = MIC ≦ 4),Cn1cc(NC(=O)c2cc(NC(=O)c3cc(NC(=O)c4cc5ccccc5cn4)c[nH]3)cn2C)cc1C(=O)NCCN1CCCCC1 [Ib-62]
+++ (+++ = MIC ≦ 4),+++ (+++ = MIC ≦ 4),+++ (+++ = MIC ≦ 4),+++ (+++ = MIC ≦ 4),+++ (+++ = MIC ≦ 4),>32 µg/mL,+++ (+++ = MIC ≦ 4),Cn1cc(NC(=O)c2cc(NC(=O)c3cc(NC(=O)c4cc5ccccc5cn4)c[nH]3)cn2C)cc1C(=O)NCCc1ccccn1 [Ib-69]
+++ (+++ = MIC ≦ 4),+++ (+++ = MIC ≦ 4),+++ (+++ = MIC ≦ 4),+++ (+++ = MIC ≦ 4),+++ (+++ = MIC ≦ 4),+++ (+++ = MIC ≦ 4),+++ (+++ = MIC ≦ 4),Cc1cc(NC(=O)c2cc(NC(=O)c3cc(NC(=O)c4cc5ccccc5cn4)cn3C)cn2CCCN(C)C)sn1 [Ib-66]
